Assay results published in ChEMBL document CHEMBL1157539, “Thousands of chemical starting points for antimalarial lead identification” (Nature, 2010).

Test system: Plasmodium falciparum
Assay: GSK_TCMDC: Inhibition of Plasmodium falciparum 3D7 in whole erythrocytes, using parasite LDH activity as an index of growth.
Assay type: functional, organism-based
Details: Plasmodium falciparum, 3D7

SMILES: O=C1C(=Cc2c(O)ccc3ccccc23)SC(=NCc2ccccc2)N1Cc1ccccc1
- XC50: 0.155 µM

SMILES: O=C(Nc1ccc(Cl)cc1)c1cccc2nc(C(F)(F)F)[nH]c12
- XC50: 0.764 µM

SMILES: COC(=O)[C@@H](NC(=O)[C@@H](Nc1ccc(C#N)c2ccccc12)C(C)(C)C)c1ccc(O)cc1
- XC50: 0.777 µM

SMILES: O=c1cc(NCCC(CNCc2ccoc2)NCc2cc(Br)cc(Br)c2)[nH]c2ccccc12 (stereo not drawn)
- XC50: 0.91 µM

SMILES: CN1CCC(C(=O)N(Cc2ccc(-c3ccc(CNCCc4ccc(S(C)(=O)=O)cc4)cn3)cc2)C2CCN(Cc3ccccc3)CC2)CC1
- XC50: 0.673 µM

SMILES: O=C(NC1CCC(CCN2CCc3ccc(-c4cnccn4)cc3CC2)CC1)c1cccc(-n2cccn2)c1 (stereo not drawn)
- XC50: 0.899 µM

SMILES: COc1cccc(Nc2nc(N)c3ccccc3n2)c1
- XC50: 0.934 µM

SMILES: CN1CC=C(C=Cc2c[nH]c3ccccc23)CC1
- XC50: 1.34 µM

SMILES: O=C(NC1CCCCC1)C1CCCN(C(=O)c2ccc(O)c(-c3ccc(Cl)c(Cl)c3)c2)C1 (stereo not drawn)
- XC50: 0.903 µM

SMILES: Cc1ccc2c(c1[N+](=O)[O-])N=NCC2Oc1ccccc1 (stereo not drawn)
- XC50: 0.868 µM

SMILES: O=S(=O)(NCCN1CCCC1)c1ccc(-c2ccc(CN3Cc4ccccc4C3)cc2)s1
- XC50: 0.93 µM

SMILES: Cn1nc(C(F)(F)F)c(-c2ccc(Br)cc2)c1NC(=O)Nc1ccc(F)cc1F
- XC50: 0.793 µM

SMILES: CC[C@H]1CN2CC[C@H]1C[C@H]2[C@H](OC(=O)c1ccccc1)c1cc(C#N)nc2ccc(OC)cc12
- XC50: 0.915 µM

SMILES: Cc1cc(N)nc2cc(CNCCc3ccccc3Br)ccc12
- XC50: 0.129 µM

SMILES: CN1CCN(Cc2ccc(OCc3cccc(COc4ccc(CN5CCN(C)CC5)cc4I)c3)c(I)c2)CC1
- XC50: 1.01 µM

SMILES: CCOC(=O)c1nc(-c2ccccc2)[nH]c1-n1nc(C)cc1C
- XC50: 0.686 µM

SMILES: Cc1cc(Cl)ccc1NC(=O)Nc1ccc2nccc(N3CCN(C)CC3)c2c1
- XC50: 0.394 µM

SMILES: CC(C)NC[C@@H](O)[C@H](Cc1ccccc1)NC(=O)c1cc2c3c(c1)c(C(C)C)cn3CCS(=O)(=O)N2C
- XC50: 0.179 µM

SMILES: Cc1ccc(C(=O)N2CCN(Cc3nccs3)CC2)cc1
- XC50: 1.01 µM

SMILES: COc1ccc(CN2CCN(CCCCNC(=O)c3ccc(NC(=O)c4ccc(Cl)cc4)cc3)CC2)c(OC)c1
- XC50: 0.89 µM

SMILES: COc1ccc(Cn2c(Nc3cccc(C(F)(F)F)c3)nc3cc(C(=O)NC(C)C)cnc32)cc1Cl
- XC50: 0.973 µM

SMILES: Cn1cc(C(=O)Nc2cccc(-c3cccc(-c4nc5cc(F)ccc5[nH]4)c3)c2)n(C)c1=O
- XC50: 0.388 µM

SMILES: Cc1ccc(NC(=O)c2ccc(Cl)c(Cl)c2)cc1-c1ccc(C(=O)Nc2ccncc2)cc1
- XC50: 0.567 µM

SMILES: COc1ccc2nccc([C@@H](O)CN3CCC(NC(=O)Cc4cc5ccccc5s4)CC3)c2c1
- XC50: 0.906 µM

SMILES: FC(F)(F)Oc1ccc(Nc2cc(-c3ccncc3)nc(-c3cccnc3)n2)cc1
- XC50: 0.672 µM

SMILES: CCC1N=C(N)N=C(N)N1OCc1ccc(Cl)c(Cl)c1 (stereo not drawn)
- XC50: 0.00335 µM

SMILES: Cc1cc(N2CCC(C)CC2)nc2cc(O)ccc12
- XC50: 1.18 µM

SMILES: CN(C)CCNCc1ccc(-c2ccc3c(Nc4ccc(F)cc4Cl)ccnc3c2)o1
- XC50: 0.145 µM

SMILES: Cc1cccc2nc(-c3ccc(-c4cccc(CNCc5ccc(S(C)(=O)=O)cc5)c4)s3)[nH]c12
- XC50: 0.334 µM

SMILES: Cc1nnsc1C(=O)Nc1cccc(-c2ccc(-c3nc4cc(F)ccc4[nH]3)cc2)c1
- XC50: 0.0962 µM

SMILES: Fc1ccc2[nH]c(-c3ccc(-c4cccc(CN5CCCCC5)c4)cc3)nc2c1
- XC50: 0.267 µM

SMILES: O=C1CCCC1Sc1nc2ccccc2c(=O)n1-c1ccc(Cl)c(Cl)c1 (stereo not drawn)
- XC50: 0.726 µM

SMILES: CCC1CN2CCc3cc(OC)c(OC)cc3C2CC1CC1NCCc2cc(OC)c(OC)cc21 (stereo not drawn)
- XC50: 0.145 µM

SMILES: Cc1cc(=O)c(-c2ccc(OCCSc3ccc(C(F)(F)F)cn3)cc2)c(C)[nH]1
- XC50: 0.527 µM

SMILES: CCCCCCSc1nnc(COc2cccc3ccccc23)n1-c1ccc(OC)cc1
- XC50: 0.0452 µM

SMILES: O=C(Nc1ccc(Cl)cc1Cl)NC1CCN(CCCCCNC(=O)C2CC2c2ccc(Cl)c(Cl)c2)CC1 (stereo not drawn)
- XC50: 0.367 µM

SMILES: O=C(c1ccc(-c2cccc(-c3nc4cc(C(F)(F)F)ccc4[nH]3)c2)cc1)N1CCCCC1CN1CCC(O)C1 (stereo not drawn)
- XC50: 0.652 µM

SMILES: CN(C)CCCOc1ccc(CN2CC[C@H](NC(=O)c3ccc(Cl)c(Cl)c3)C2)cc1Cl
- XC50: 0.957 µM

SMILES: COc1ccc2nccc([C@@H](O)CN3CCC(NCCOc4ccccc4C(F)(F)F)CC3)c2c1
- XC50: 0.753 µM

SMILES: CN(C)CCOc1cc(NC(=O)Nc2ccc3c(c2)CCCC3=O)ccc1I
- XC50: 0.939 µM

SMILES: O=C(N[C@H]1CCN(Cc2ccc(OCCCN3CCCCC3)cc2)C1)c1cc(Cl)cc(Cl)c1
- XC50: 0.621 µM

SMILES: Cc1cc(C)c(NC(=O)NC2CCN(CCCCCNC(=O)/C=C/c3ccc(Cl)c(Cl)c3)CC2)c(C)c1
- XC50: 0.797 µM

SMILES: O=C(NCc1ccc(C(=O)N2CCC(N3CCCCC3)CC2)cc1)c1cc(-c2cccc(C(F)(F)F)c2)ccc1O
- XC50: 0.817 µM

SMILES: CN(C)CC(O)C(O)(c1ccccc1)c1ccc(F)cc1 (stereo not drawn)
- XC50: 1.15 µM

SMILES: Cc1cc(Nc2ccc(Cl)cc2)n2nc(C(F)(F)F)nc2n1
- XC50: 0.117 µM

SMILES: CN(C)C(=O)n1cnc(S(=O)(=O)N(C)c2ccc(Cl)cc2)n1
- XC50: 0.767 µM

SMILES: COc1ccc(CNC2Cc3ccccc3C2)cc1-c1ccc(S(=O)(=O)NCCN2CCCC2)c(F)c1
- XC50: 0.719 µM

SMILES: Cc1ccc(C2CC(=O)CC(c3ccccn3)C2[N+](=O)[O-])cc1 (stereo not drawn)
- XC50: 0.859 µM

SMILES: CC(=O)Nc1ccc(OCCN(CC(C)C)c2ccc(C#N)c(C(F)(F)F)c2)c(Cl)c1
- XC50: 0.786 µM

SMILES: Cc1nc(-c2cccc(Nc3nccc(NCC(O)c4ccccc4)n3)c2)cs1 (stereo not drawn)
- XC50: 0.793 µM

SMILES: Cc1cc(Nc2cccc(C(F)(F)F)c2)nc2ccc(NC(=O)c3ccc(=O)[nH]c3)cc12
- XC50: 0.487 µM

SMILES: COc1cccc(CN2CCC(CCOC(c3ccccc3)c3ccc(Cl)cc3)CC2)c1O (stereo not drawn)
- XC50: 0.713 µM

SMILES: COc1ccc(-c2nonc2NC(=O)c2cccc(Cl)c2)cc1OC
- XC50: 0.876 µM

SMILES: CC(=O)C1(c2ccccc2)CCN(CCC2(c3ccc(Cl)c(Cl)c3)CN(C(=O)CC(C)C)CCO2)CC1 (stereo not drawn)
- XC50: 0.644 µM

SMILES: O=C(Nc1ccc(-c2cccc(-c3nc4cc(F)ccc4[nH]3)c2)cc1)c1ccncc1
- XC50: 0.719 µM

SMILES: COc1ccc(NCCCNc2ccnc3ccccc23)cc1
- XC50: 0.966 µM

SMILES: c1ccc2c(Nc3ccc(OCCOCCOc4ccc(Nc5c6ccccc6nc6ccccc56)cc4)cc3)c3ccccc3nc2c1
- XC50: 0.284 µM

SMILES: Cc1cccc2nc(-c3ccc(-c4ccc(CN5CCCCC5)cc4)cc3)[nH]c12
- XC50: 0.589 µM

SMILES: Cc1nnc(N2C(=N)SC(=Cc3ccc(-c4ccc(OC(F)(F)F)cc4)o3)C2=O)s1
- XC50: 0.526 µM

SMILES: CC(Cc1ccc(OCCCCOc2ccccc2)cc1)NCCCn1ccnc1 (stereo not drawn)
- XC50: 0.167 µM

SMILES: CCc1ccc(-c2nc3cc(NC(=O)c4cc([N+](=O)[O-])cc([N+](=O)[O-])c4)ccc3o2)cc1
- XC50: 0.932 µM

SMILES: CCN(CC)CCCC(C)Nc1cc(C)nc2cc(Cl)ccc12 (stereo not drawn)
- XC50: 0.726 µM

SMILES: CCc1c(C(=O)NC2CCC(N3CCC(c4ccccc4C)CC3)CC2)[nH]c2ccc(OC)cc12 (stereo not drawn)
- XC50: 0.808 µM

SMILES: COc1cc(Nc2nccc(N3CCC(NS(=O)(=O)c4ccc(NC(C)=O)cc4)CC3)n2)cc(OC)c1OC
- XC50: 0.965 µM

SMILES: N#Cc1ccc2c(c1)CCN(CCC1CCC(NC(=O)/C=C/c3ccc(Cl)c(Cl)c3)CC1)CC2 (stereo not drawn)
- XC50: 0.422 µM

SMILES: O=C(/C=C/c1ccc(Cl)c(Cl)c1)NCCCCCCN1CCN(C(=O)Nc2ccc(OC(F)F)cc2)CC1
- XC50: 0.679 µM

SMILES: O=C(Nc1ccccc1)N(Cc1ccccc1-c1cccc(CNCCc2ccccc2)c1)C1CCN(Cc2ccccc2)CC1
- XC50: 0.176 µM

SMILES: CCCNC[C@@H](O)[C@H](Cc1ccccc1)NC(=O)c1cc(NCC)cc(N2CCCCS2(=O)=O)c1
- XC50: 0.224 µM

SMILES: COc1cccc(CNc2noc(-c3c(-c4ccccc4)noc3C)n2)c1OC
- XC50: 0.875 µM

SMILES: Nc1ccc2nc(C=Cc3ccccc3)[nH]c2c1
- XC50: 0.749 µM

SMILES: O=C(COc1ccccc1)Nn1cnc2ccccc21
- XC50: 1.05 µM

SMILES: N#Cc1cc([N+](=O)[O-])ccc1-n1nc(C(N)=O)n(Cc2cccc(F)c2)c1=S
- XC50: 0.721 µM

SMILES: CCOC(=O)c1cc(C(=O)OC)c2ccccn12
- XC50: 0.223 µM

SMILES: Cn1cnc(CCNC(=O)c2ccc(-c3cccc(-c4nc5ccccc5[nH]4)c3)cc2)c1
- XC50: 1.1 µM

SMILES: CCN(CC)CCCC(C)Nc1c(-c2ccc(Br)cc2)cnc2ccccc12 (stereo not drawn)
- XC50: 0.703 µM

SMILES: COc1cccc2c1CCN(CCN1CCC(NC(=O)c3ccc(-c4cccc(Cl)c4Cl)cc3)CC1)C2
- XC50: 0.699 µM

SMILES: CCN(CC)CCOc1ccc(N(Cc2ccc(C(C)(C)C)cc2)C(=O)c2ccc(Cc3ccccc3)cc2)cc1OC
- XC50: 0.773 µM

SMILES: COc1ccc2ncc(F)c(CCN3CC[C@@H](CNCc4nc5c(cc4C)SCC(=O)N5)C3)c2n1
- XC50: 1.15 µM

SMILES: O=C(NCC1COc2ccccc2O1)c1cnc2c(c1)nc(-c1c[nH]c(-c3ccccc3)n1)n2CCSCc1c(F)cccc1Cl (stereo not drawn)
- XC50: 0.959 µM

SMILES: Cc1cc(O)c(CN2CCN(Cc3cccs3)CC2)cc1C(C)C
- XC50: 0.717 µM

SMILES: CCn1cc(C(=O)O)c(=O)c2cc(F)c(N3CCN(S(=O)(=O)c4ccc(N)cc4)CC3)cc21
- XC50: 0.922 µM

SMILES: Cc1cc(NC2CCN(CC3CCCCC3)CC2)nc(Nc2ccccc2Cl)n1
- XC50: 0.642 µM

SMILES: CN(C)Cc1cccc(-c2ccc(NC(=O)c3ccc4c(=O)n(C5CCCCC5)cnc4c3)cc2)c1
- XC50: 0.744 µM

SMILES: O=C(CCNc1ccnc(NCCc2ccc(F)cc2)n1)Nc1ccccc1
- XC50: 0.829 µM

SMILES: O=C(/C=C/c1ccc(Cl)c(Cl)c1)NCCCCCN1CCCN(C(=O)Nc2ccc(F)c(Cl)c2)CC1
- XC50: 0.799 µM

SMILES: COc1cc2ncnc(Nc3ccc4nc(-c5ccccc5)[nH]c4c3)c2cc1OC
- XC50: 0.443 µM

SMILES: Fc1ccc2[nH]c(-c3ccc(-c4ccc(CN5CCCCC5)cc4)cc3)nc2c1
- XC50: 0.349 µM

SMILES: NC(=O)c1cccc(C(=O)Nc2cccc(-c3cccc(-c4nc5cc(C(F)(F)F)ccc5[nH]4)c3)c2)c1
- XC50: 0.126 µM

SMILES: O=C(/C=C/c1ccc(Cl)c(Cl)c1)NCCCCCN1CCCN(C(=O)Nc2cccc(F)c2)CC1
- XC50: 0.757 µM

SMILES: COc1c(I)cc(Cc2cnc(N)nc2N)cc1I
- XC50: 0.93 µM

SMILES: CCOc1ccc(Nc2nc(N)c3ccccc3n2)cc1
- XC50: 1.15 µM

SMILES: N#CN1CC[C@@H](OC(=O)N[C@@H]2C[C@H]2c2ccccc2)C1
- XC50: 1.34 µM

SMILES: Cc1cccc2nc(-c3ccc(-c4cccc(CNCCN5CCNCC5)c4)cc3)[nH]c12
- XC50: 1.23 µM

SMILES: CC(C)C[C@H](NC(=O)c1ccc(OCCN2CCOCC2)cc1)C(=O)NC(/C=N/N1CCCC1=O)C(C)C (stereo partly drawn)
- XC50: 0.248 µM

SMILES: COc1ccc(OC)c(Cc2cnc3nc(N)[nH]c(=O)c3c2C)c1
- XC50: 0.357 µM

SMILES: CN1CCC(NCc2ccc(-c3cnc(NCc4ccccc4)nc3)cc2)CC1
- XC50: 0.827 µM

SMILES: COc1ccc(C=NNc2cc(C)nc3ccc(OC)cc23)c(OC)c1
- XC50: 0.778 µM

SMILES: Cc1ccc2c(N/N=C/c3cccc([N+](=O)[O-])c3)cc(C)nc2c1
- XC50: 0.272 µM
